These results are taken from ChEMBL document CHEMBL1201862, “PubChem BioAssay data set” (2004).

Calls of active or inactive are those of the source.

The target of experiment [1] is T1, Fibrinogen beta chain (Homo sapiens, UniProt P02675). Description: Fluorescence polarization-based biochemical high throughput dose response assay to identify inhibitors that disrupt the binding of a cyclic peptide (Tn7) to the fibrin proteolytic product D-Dimer and fragment E complex [DD(E )].
Experiment [2] addresses Female germline-specific tumor suppressor gld-1 (Caenorhabditis elegans, UniProt Q17339). As to the kind of experiment: blockers of GLD-1/TGE RNA complex formation – biochemical, fluorescence polarization, C. elegans, dose response (AID 2802).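 Further: fluorescence polarization of labeled TGE RNA bound by purified gld-1 protein.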 Background: In fluorescence polarisation assays a small probe gives low polarisation when free and higher when bound to something large.

The target in experiment [3] is Protein Rev (Human immunodeficiency virus type 1 group M subtype B (isolate HXB2)(HIV-1), UniProt P04618). Description: blockers of HIV Rev/RRE RNA complex – biochemical, fluorescence polarization, HIV-1, dose response (AID 434976). Details: species or system Human immunodeficiency virus 1.
Chain of Protein Rev (P04618 whole entry, the tested form may be a part): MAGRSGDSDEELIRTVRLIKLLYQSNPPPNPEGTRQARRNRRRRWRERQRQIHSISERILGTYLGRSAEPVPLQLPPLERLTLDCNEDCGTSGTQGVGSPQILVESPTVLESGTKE
The target in experiment [4] is T1, Fibrinogen beta chain. As to the kind of experiment: Fluorescence polarization-based biochemical high throughput dose response assay to identify inhibitors that disrupt the binding of a cyclic peptide (Tn6) to the fibrin proteolytic product D-Dimer and fragment E complex [DD(E )].
The subject of experiment [5] is Streptococcus sp. 'group A'. Description: Streptococcus pyogenes SK(-)GAS viability under kanamycin – luminescence, BacTiterGlo, confirmation, counter-screen for streptokinase expression inhibitor project, dose response (AID 1900). The class given is functional, organism-based. For orientation: The purpose of a counterscreen is to sort out artefacts and off-target activity.

For experiment [6], the target named is T2, Endoribonuclease toxin MazF (Escherichia coli K-12, UniProt P0AE70).
T2 sequence (P0AE70 whole entry): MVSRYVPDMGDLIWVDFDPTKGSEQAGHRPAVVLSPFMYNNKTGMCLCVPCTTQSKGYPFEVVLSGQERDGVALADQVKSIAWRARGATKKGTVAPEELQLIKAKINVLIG
As to the kind of experiment: activation of MazEF endoribonuclease cleavage – biochemical, fluorescence, single-stranded RNA substrate, uHTS hits, dose response (AID 588481). The class given is functional.

Experiment [7] has as its target T3, Cysteine protease ATG4B (Homo sapiens, UniProt Q9Y4P1).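 Further: Fluorescence-based dose-response confirmation assay measuring inhibition of ATG4B activity.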
T3 sequence (Q9Y4P1 whole entry): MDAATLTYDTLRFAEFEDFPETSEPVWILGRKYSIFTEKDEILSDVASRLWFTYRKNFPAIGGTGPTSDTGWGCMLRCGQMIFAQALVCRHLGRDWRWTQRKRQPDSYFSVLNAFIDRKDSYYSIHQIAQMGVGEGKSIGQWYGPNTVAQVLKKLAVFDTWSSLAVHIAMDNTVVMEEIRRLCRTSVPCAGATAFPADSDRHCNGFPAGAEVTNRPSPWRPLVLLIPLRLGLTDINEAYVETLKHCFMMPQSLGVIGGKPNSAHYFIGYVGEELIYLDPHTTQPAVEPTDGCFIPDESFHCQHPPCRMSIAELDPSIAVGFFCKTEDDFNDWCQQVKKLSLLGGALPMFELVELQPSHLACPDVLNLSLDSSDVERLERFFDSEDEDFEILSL
The class given is functional.

Experiment [8] concerns the target FAD-linked sulfhydryl oxidase ALR (Homo sapiens, UniProt P55789). Description: ALR-catalysed DTT oxidation blockers – biochemical, H2O2 detection, luminescence, cherry-pick, dose response (AID 493248).
Experiment [9] relates to Streptococcus. As to the kind of experiment: GAS UMAA2166 growth inhibition – luminescence, BacTiterGlo, counter-screen for streptokinase expression inhibitor project, dose response (AID 1915).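 Further: potency for reduction of bacterial viability or growth.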 The class given is functional, organism-based.
Experiment [10] deals with Phospholipase A2 (Homo sapiens, UniProt P04054). The class given is functional.
Chain of Phospholipase A2 (P04054 whole entry): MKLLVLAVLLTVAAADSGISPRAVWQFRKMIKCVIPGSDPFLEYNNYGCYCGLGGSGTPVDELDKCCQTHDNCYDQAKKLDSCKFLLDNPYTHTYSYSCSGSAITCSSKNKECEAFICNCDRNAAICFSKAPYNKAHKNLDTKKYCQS
Experiment [11] has as its target T2, Endoribonuclease toxin MazF. As to the kind of experiment: substrate-only fluorescence increase artefacts – biochemical, single-stranded RNase substrate, counter-screen for MazEF activator project, dose response (AID 588502). The class given is functional.
In experiment [12] the target is T4, Streptokinase A (Streptococcus pyogenes serotype M1, UniProt P10520).
T4 sequence (P10520 whole entry): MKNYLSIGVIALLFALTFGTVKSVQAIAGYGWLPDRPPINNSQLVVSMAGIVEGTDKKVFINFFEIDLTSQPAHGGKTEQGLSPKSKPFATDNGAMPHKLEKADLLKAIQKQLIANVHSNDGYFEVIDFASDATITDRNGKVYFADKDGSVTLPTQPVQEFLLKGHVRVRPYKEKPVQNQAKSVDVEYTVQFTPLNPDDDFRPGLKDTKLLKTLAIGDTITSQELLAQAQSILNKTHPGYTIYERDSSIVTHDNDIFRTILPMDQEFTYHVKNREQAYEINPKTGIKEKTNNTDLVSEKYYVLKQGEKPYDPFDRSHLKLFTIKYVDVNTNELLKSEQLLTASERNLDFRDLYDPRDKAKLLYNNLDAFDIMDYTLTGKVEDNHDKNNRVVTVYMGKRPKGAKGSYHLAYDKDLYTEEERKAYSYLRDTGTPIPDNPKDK
Description: viability-normalized secreted streptokinase activity reduction – plasminogen activation absorbance, OD405, dose response (AID 1914).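 Further: secreted streptokinase activity via plasminogen activation per viability signal from cell pellet.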 The class given is functional, Streptococcus pyogenes M1 GAS.

The test system of experiment [13] is Salmon testes DNA. Description: acridine orange-DNA binding displacement – biochemical, fluorescence polarization, cherry-picked samples, set 2, artefact control for KSHV LANA DNA-binding inhibitor project, dose response (AID 504727). Details: species or system Salmonidae.
Experiment [14] has as its target ORF 73 (Human herpesvirus 8, UniProt O40947). As to the kind of experiment: KSHV LANA DNA-binding disruption – biochemical, fluorescence polarization, cherry-picked samples, dose response (AID 504725).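 Further: fluorescence polarization of a labeled DNA duplex reporting LANA DNA binding; potency is for inhibitors that block LANA binding to the DNA.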 Details: species or system Human gammaherpesvirus 8.
Experiment [15] deals with Chaperone protein dnaK (Escherichia coli, UniProt C3TRK2). Description: E. coli DnaK binders, calorimetric Kd – biophysical, isothermal titration calorimetry, beta-domain, full-length DnaK, orthogonal assay for DnaK modulator project, SAR follow-up (AID 1495). (In general: ITC needs no label: the signal is the heat of the interaction.)
Chain of Chaperone protein dnaK (C3TRK2 whole entry): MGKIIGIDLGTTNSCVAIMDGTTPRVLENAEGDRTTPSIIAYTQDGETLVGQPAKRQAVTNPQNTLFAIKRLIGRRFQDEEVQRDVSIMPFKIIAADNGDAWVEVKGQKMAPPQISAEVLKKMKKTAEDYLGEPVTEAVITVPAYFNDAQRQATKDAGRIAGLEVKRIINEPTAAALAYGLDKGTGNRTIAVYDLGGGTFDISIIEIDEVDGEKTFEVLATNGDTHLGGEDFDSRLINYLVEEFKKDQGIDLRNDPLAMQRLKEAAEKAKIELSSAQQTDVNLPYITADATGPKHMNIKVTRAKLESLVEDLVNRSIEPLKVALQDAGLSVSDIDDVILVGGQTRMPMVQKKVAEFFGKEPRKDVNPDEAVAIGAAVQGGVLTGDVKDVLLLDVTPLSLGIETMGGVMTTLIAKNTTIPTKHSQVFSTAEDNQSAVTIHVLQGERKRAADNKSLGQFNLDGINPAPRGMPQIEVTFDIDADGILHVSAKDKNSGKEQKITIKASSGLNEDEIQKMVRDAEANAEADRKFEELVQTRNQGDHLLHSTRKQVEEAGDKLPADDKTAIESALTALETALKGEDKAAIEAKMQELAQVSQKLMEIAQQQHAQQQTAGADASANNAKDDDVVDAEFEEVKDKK
The subject of experiment [16] is HeLa. As to the kind of experiment: viability loss in HeLa cells – cell-based, 24 h, cherry-picked samples, cytotoxicity control, dose response (AID 504726).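 Further: potency for cytotoxicity as loss of luminescence signal.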 The class given is functional. Conditions: Homo sapiens.
The target in experiment [17] is Melanin-concentrating hormone receptor 1 (Homo sapiens, UniProt Q99705). As to the kind of experiment: Fluorescence-based counterscreen for antagonists of the G-protein coupled receptor 7 (GPR7): cell-based high throughput dose response assay to identify antagonists of the melanin-concentrating hormone receptor 1 (MCHR1). The class given is functional.
Chain of Melanin-concentrating hormone receptor 1 (Q99705 whole entry): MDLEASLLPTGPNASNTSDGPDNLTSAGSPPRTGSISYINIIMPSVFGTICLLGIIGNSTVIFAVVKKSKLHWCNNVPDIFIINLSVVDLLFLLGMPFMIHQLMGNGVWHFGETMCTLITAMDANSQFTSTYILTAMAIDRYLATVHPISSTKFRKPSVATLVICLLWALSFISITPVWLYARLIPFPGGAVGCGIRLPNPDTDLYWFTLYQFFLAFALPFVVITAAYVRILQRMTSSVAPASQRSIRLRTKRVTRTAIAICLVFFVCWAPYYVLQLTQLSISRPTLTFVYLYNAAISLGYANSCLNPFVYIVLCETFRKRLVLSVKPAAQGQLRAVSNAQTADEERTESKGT
The target in experiment [18] is Neuropeptides B/W receptor type 1 (Homo sapiens, UniProt P48145). As to the kind of experiment: Fluorescence-based dose response cell-based high throughput screening assay to identify antagonists of the G-protein coupled receptor 7 (GPR7). [Related pubchem assays: 1952 (Screening assay (GPR7 antagonists).), 1880 (Summary AID.)]. The class given is functional.
Chain of Neuropeptides B/W receptor type 1 (P48145 whole entry): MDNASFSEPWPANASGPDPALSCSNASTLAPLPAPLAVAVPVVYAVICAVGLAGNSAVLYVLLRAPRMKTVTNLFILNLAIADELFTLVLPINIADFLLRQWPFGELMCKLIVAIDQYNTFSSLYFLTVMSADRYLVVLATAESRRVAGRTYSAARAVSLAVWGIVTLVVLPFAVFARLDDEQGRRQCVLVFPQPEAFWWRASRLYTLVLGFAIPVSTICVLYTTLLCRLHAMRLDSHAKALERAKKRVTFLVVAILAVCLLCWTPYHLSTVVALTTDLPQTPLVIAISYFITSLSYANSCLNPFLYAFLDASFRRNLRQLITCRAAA

T1 sequence (P02675 whole entry, the tested form may be a part): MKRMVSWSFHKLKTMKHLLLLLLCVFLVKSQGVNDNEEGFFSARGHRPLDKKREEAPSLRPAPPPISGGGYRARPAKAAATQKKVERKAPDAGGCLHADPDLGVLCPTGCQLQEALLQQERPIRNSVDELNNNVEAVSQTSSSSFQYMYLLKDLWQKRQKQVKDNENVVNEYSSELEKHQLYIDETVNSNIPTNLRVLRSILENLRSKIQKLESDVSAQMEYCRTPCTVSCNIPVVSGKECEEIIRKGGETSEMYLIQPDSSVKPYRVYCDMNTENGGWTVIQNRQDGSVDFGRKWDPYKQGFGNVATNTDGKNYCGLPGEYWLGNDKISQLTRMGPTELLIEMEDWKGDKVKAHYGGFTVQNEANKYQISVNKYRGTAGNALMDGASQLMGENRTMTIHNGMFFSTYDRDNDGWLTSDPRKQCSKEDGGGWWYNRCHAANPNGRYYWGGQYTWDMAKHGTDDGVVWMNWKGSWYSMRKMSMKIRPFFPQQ
Chain of ORF 73 (O40947 whole entry): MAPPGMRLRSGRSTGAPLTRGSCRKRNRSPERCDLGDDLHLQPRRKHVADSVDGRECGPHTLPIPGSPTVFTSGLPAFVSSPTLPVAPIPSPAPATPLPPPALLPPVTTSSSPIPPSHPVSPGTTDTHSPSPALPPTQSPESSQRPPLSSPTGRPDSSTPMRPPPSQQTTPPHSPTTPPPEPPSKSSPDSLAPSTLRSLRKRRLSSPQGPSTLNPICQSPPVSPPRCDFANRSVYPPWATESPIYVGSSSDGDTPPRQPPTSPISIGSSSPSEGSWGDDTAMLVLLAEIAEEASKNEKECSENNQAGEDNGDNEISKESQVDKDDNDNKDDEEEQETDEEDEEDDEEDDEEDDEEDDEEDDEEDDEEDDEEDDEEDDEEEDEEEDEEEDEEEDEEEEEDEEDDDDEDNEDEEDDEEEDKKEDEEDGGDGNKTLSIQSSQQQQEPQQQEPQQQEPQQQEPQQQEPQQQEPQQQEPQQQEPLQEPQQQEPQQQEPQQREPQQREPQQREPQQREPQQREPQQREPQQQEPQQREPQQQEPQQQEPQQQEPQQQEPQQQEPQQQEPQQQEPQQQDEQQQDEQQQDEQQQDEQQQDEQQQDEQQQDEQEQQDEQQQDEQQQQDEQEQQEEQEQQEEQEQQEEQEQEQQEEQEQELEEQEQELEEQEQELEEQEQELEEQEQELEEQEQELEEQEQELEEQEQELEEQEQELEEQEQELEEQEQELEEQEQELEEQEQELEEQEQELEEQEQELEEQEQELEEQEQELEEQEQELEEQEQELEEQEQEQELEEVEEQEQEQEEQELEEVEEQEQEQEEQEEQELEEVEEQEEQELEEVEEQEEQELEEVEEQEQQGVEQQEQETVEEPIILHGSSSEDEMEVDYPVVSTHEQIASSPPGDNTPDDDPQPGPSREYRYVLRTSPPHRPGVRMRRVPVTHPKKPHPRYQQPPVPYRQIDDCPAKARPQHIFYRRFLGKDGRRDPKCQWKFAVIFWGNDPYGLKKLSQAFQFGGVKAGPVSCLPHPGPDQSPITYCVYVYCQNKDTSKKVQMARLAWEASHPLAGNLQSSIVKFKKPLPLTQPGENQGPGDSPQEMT
Chain of Female germline-specific tumor suppressor gld-1 (Q17339 whole entry): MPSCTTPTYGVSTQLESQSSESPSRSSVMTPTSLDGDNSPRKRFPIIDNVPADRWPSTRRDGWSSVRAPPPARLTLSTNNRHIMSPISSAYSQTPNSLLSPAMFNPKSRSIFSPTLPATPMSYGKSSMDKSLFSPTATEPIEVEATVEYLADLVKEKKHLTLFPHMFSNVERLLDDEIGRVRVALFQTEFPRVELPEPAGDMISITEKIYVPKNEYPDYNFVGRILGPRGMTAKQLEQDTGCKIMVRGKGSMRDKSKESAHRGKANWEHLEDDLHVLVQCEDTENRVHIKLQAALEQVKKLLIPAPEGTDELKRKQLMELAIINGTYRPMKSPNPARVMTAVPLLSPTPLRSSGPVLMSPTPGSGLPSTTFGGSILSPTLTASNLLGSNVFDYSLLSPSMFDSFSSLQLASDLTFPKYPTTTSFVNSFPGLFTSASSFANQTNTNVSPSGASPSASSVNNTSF
Chain of FAD-linked sulfhydryl oxidase ALR (P55789 whole entry): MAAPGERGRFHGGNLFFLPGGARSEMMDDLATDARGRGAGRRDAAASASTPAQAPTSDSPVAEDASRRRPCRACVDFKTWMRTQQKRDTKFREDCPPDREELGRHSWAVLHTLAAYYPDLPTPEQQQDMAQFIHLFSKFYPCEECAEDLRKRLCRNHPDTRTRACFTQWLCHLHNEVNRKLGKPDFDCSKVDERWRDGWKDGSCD

Usually IC50 stands for the concentration needed to halve the response being measured. `COC(=O)c1ccc2c(c1)SC1=C(O)CCCC1=N2`: the IC50 in experiment [1] was > 83.3 µM (inactive); in experiment [2], 6.11 µM (active); in [3] it was > 75.4 µM (not active); in [4] it was 17.9 µM (inactive).
As usually defined, the EC50 is the concentration needed to bring the measured effect to its halfway point. One may read the AC50 as the concentration at which the activity in the assay is half-maximal. In the case of `O=C(O)C(c1ccccc1)N1C(=O)/C(=C\c2ccc(-c3cccc(Cl)c3)o2)SC1=S` (stereo not drawn), the EC50 in experiment [5] is 2.37 µM (active); in experiment [6], 50.3 µM (inactive); in experiment [9], 2.23 µM (active); in [11], 97.1 µM (inactive); in [12], 1.37 µM (active). Further, the half-maximal inhibitory concentration (IC50) in experiment [7] is 4.41 µM (active); in experiment [10] it was 11.2 µM (active). Moreover, the AC50 in experiment [8] was 3.54 µM (active); in [13] it was 40.7 µM (active).
Consider `O=C(Cn1nc(Cc2ccncc2)c2ccccc2c1=O)N1CCN(C(=O)c2ccco2)CC1`, for which the AC50 in experiment [14] is 11.4 µM (active).
What is called Kd is the free concentration of one partner at which half of the binding sites on the other are occupied at equilibrium, for simple one-to-one binding. Consider `O=C(NCc1cccc2ccsc12)c1cccs1`, for which the Kd in [15] was 0.2 µM (active).
Consider `CC(=O)N/C(=C/c1ccc(OS(=O)(=O)c2ccc(C)cc2)cc1)C(=O)Nc1ccc(C(=O)O)cc1`, for which the AC50 in [16] is 132 µM (active).
Regarding `COc1cc(/C=C(\C#N)C(=O)Nc2ccc(C(=O)O)cc2)ccc1OC(=O)c1cccc(F)c1`, the 50% inhibitory concentration (IC50) is 12 µM (not active) in [17] and 5.86 µM (active) in experiment [18].
